Values of other authors, collected in patent publication US12281304B2, “Compositions and methods for treating and preventing muscular disorders and dystrophies, steroid side effects, and inflammation” (Children's National Medical Center, priority 2018, dated 2025).

Key:
mdx mice = details: same mdx mice as discovery set; prednisolone 5 mg/kg, vamorolone 15 mg/kg; cited from earlier work
[1] = target: T1, glucocorticoid receptor (GR) (Homo sapiens, UniProt P04150); details: cited from earlier work
T1 sequence (P04150 1-777): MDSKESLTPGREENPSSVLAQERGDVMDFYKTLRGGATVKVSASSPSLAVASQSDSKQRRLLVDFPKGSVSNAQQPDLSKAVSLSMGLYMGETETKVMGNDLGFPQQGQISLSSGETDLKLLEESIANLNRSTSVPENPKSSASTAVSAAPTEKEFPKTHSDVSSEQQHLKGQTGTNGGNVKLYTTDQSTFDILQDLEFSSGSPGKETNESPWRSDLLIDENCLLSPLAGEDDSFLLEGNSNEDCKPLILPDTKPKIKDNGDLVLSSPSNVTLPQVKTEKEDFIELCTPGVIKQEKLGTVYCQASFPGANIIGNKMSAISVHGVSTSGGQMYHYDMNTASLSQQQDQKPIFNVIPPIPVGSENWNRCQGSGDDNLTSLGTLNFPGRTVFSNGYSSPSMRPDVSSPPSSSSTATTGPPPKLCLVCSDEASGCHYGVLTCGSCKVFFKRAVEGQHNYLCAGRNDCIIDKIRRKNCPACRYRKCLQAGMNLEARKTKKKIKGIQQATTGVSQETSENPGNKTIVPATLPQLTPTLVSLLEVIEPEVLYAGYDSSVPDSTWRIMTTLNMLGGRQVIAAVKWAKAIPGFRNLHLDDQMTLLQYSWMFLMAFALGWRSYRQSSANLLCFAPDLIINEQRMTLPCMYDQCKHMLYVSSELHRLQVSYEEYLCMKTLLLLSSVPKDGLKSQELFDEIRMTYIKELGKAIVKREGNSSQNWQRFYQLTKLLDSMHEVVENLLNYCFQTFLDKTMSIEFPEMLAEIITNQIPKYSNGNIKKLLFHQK

[2] = preclinical mdx mouse and human Phase I trials; cited from earlier work

Row | SMILES | grip strength, muscle pathology and diaphragm inflammation (mdx mice) | steroid side effects (stunted growth, immunosuppression, bone loss) (mdx mice) | binding to the GR [1] | steroidal side effects in comparison to prednisone [2]
1 | C[C@]12C=CC(=O)C=C1CC[C@@H]1[C@@H]2[C@@H](O)C[C@@]2(C)[C@H]1CC[C@]2(O)C(=O)CO [prednisolone] | successfully improved grip strength, muscle pathology, and diaphragm inflammation | caused traditional steroid side effects of stunted growth, immunosuppression, and bone loss |  | 
2 | C[C@@H]1C[C@H]2[C@@H]3CCC4=CC(=O)C=C[C@]4(C)C3=CC[C@]2(C)[C@@]1(O)C(=O)CO [vamorolone] | successfully improved grip strength, muscle pathology, and diaphragm inflammation | successfully avoided these side effects | high affinity | avoids or has substantially reduced steroidal side effects in comparison to prednisone
